# Assays:
# HDF cells = assay: H2O2 production by P. acnes-stimulated HDF; type: cell-based, human; conditions: cells first pretreated, small peptides 2.5 to 20 μM
# Method: (§1) For experiences of stimulation with P. acnes, cells were incubated with the P. acnes suspension adjusted at the appropriate concentration, pre-treated for 1 h at 37° C. or not with fibrinogen recombinant peptides Fg1 and Fg2 at the concentrations 0.87, 1.75, 3.5 or 7 μM for the desired period of time at 37° C. in 5% CO2.
# (§2) All cells lines (5·10^4 to 10^5 cells/well) were seeded in 96-well plates (Corning Costar, Brumath, France) and treated as previously described. After stimulation, cells were washed three times in PBS and incubated with 100 μl per wells of 5 μM DHE (for determination of O2^●−) or 5 μM H2-DCFDA (for determination of H2O2) for 30 min as described previously and fluorescence intensity was recorded every hour over a period of 5 h. Fluorescence excitation/emission maxima were for DHE: 480/610 nm and for H2-DCFDA: 507/525 nm. At the end of the experiment, the number of adherent cells was evaluated by the crystal violet assay as described below. O2^●−, and H2O2 were assayed by spectrofluorimetry on a Fusion spectrofluorimeter (PackardBell, Paris, France). Levels of ROS were calculated in each sample as follows: reactive oxygen species rate (arbitrary units/min/10^6 cells)=(fluorescence intensity [arbitrary units] at T5h—fluorescence intensity [arbitrary units] at To/300 minutes/number of adherent cells as measured by the crystal violet assay, and were expressed as arbitrary unit (A.U.).
# (§3) To assess the efficacy of Fg1 recombinant peptide, the production of O2^∘− and H2O2 by HaCaT cells NHDK, THP-1, MRC5 and HDF stimulated by pretreated P. acnes strains 6919, RON and PIE was measured. The amount of ROS produced was compared to that produced by the stimulated cells with untreated bacteria. Production baseline was obtained by measuring ROS on unstimulated cells. The production of IL-1ß, IL-8, IL-12 and TNF-α was also measured in all conditions cited above. The measurement of the production of ROS is performed by spectrofluorimetry in the presence of specific fluorochromes directly on the monolayer cell. Measurement of cytokine production was performed in parallel on the cell culture supernatant.
# (§4) Two sets of experiments were implemented: 1) The cells were stimulated (18 h at 37° C.) by P. acnes strains previously pretreated with Fg1 and Fg2 peptides at the final concentrations ranging from 0.87 to 7 μM for 1 h at 37° C.; and 2) The cells were pretreated first with Fg1 and Fg2 peptides at the final concentrations ranging from 0.87 to 7 μM for 24 h at 37° C. and stimulated (18 h at 37° C.) by P. acnes strains.
# (§5) To assess the efficacy of the small Fg1-related peptide, the production of H2O2 by several cell lines (HaCaT, NHDK, THP-1, MRC5 and HDF) stimulated by three P. acnes strains 6919, RON and PIE was measured, in presence or not with the small peptides. The amount of H2O2 produced is compared to that produced by the stimulated cells with untreated bacteria. Production baseline is obtained by measuring H2O2 on unstimulated cells. The measurement of the production of H2O2 is performed by spectrofluorimetry in the presence of specific fluorochromes directly on the monolayer cell.
# (§6) Two sets of experiments have been implemented: • I) The cells are stimulated (18 h at 37° C.) by P. acnes strains previously pretreated with Fg1.1, Fg1.2, Fg1.3, Fg1.4, and Fg1.5 small peptides at the final concentrations ranging from 2.5 to 20 μM for 1 h at 37° C.; • II) The cells are pretreated first with the five small peptides at the final concentrations ranging from 2.5 to 20 μM for 24 h at 37° C. and stimulated (18 h at 37° C.) by P. acnes strains.
# HaCaT cells = assay: H2O2 production by P. acnes-stimulated HaCaT (spectrofluorimetry, H2-DCFDA); type: cell-based, human; conditions: small peptides 2.5 to 20 μM
# Method: as §1, §2, §3, §4, §5, §6
# MRC5 cells = assay: H2O2 production by P. acnes-stimulated MRC5; type: cell-based, human; conditions: small peptides 2.5 to 20 μM
# ThP1 cells = assay: H2O2 production by P. acnes-stimulated ThP1; type: cell-based, human; conditions: small peptides 2.5 to 20 μM
# Method: as §1, §2, §3, §4, §5, §6
# NHDK cells = assay: H2O2 production by P. acnes-stimulated NHDK; type: cell-based, human; conditions: cells first pretreated, small peptides 2.5 to 20 μM
# Method: as §1, §2, §3, §4, §5, §6
# [1] = tested on: HaCaT, NHDK, THP-1, MRC5 and HDF; assay: H2O2 production by cells stimulated with P. acnes, overall statement for the five cell lines; type: cell-based, human; conditions: pretreatment of P. acnes strains with small peptide 2.5 to 20 μM; five cell lines and three strains tested
# Method: FIG. 17: Dose-dependent inhibition of H2O2 production by fibroblast pre-treated by small Fg1-generated peptides and stimulated by P. acnes. MRC5 cell were incubated for 24 h with small peptides Fg1.1 (light gray bar), Fg1.2 (horizontal line bar), Fg1.3 (hatched bar), Fg1.4 (dark gray bar), Fg1.5 (dotted bar) at concentrations ranging from 2.5 to 20 μM. Measurement of hydrogen peroxide production was realized by spectrofluorometry as described in Materials and Methods. Controls experiments were done with unstimulated MRC5 cell (white bar) and MRC5 stimulated with P. acnes (black bar). Data are means±S.D. of three separate experiments. Statistical significance is indicated by * (P<0.05), ** (P<0.01), *** (P<0.001), and **** (P<0.0001), respectively.
# as §2, §5, §6
# FIG. 17 corresponds to the results obtained with the P. acnes RON strain on the fibroblast MRCS cell line and are representative of the results obtained with all P. acnes and cells lines tested (Table 6).
# [2] = tested on: P. acnes surface proteins; assay: Binding of biotinylated ECM ligands to immobilized P. acnes surface proteins; parameters: species or system Propionibacterium acnes; conditions: 25 μg/ml of protein immobilized per well; various quantity of biotinylated Fg and Collagen I
# Method: FIG. 2: Binding of P. acnes surface protein to purified human fibrinogen. (A) P. acnes surface proteins (0.8 to 50 μg/ml) were immobilized onto a 96-well polystyrene plate and probed with biotinylated fibrinogen (0.1 μg/ml) for 2 h at room temperature. (B) P. acnes surface proteins (25 μg/ml) were immobilized onto a 96-well polystyrene plate and probed with various concentrations of biotinylated fibrinogen ranging from 0.1 to 16 μg/ml for 2 h at room temperature. Bound biotinylated fibrinogen were detected with HRP-streptavidine as described in Materials and Methods.
# To characterize the interaction between P. acnes and ligands, we used biotinylated molecules in quantitative and qualitative assays. In a first set of assays, ECM ligands (fibrinogen, collagens I, IV, VI and VIII) were used as labelled proteins with biotin. In a second set of assays, P. acnes surface proteins (total extract and purified Pfg) were biotinylated. For quantitative analysis, unlabeled protein were diluted into 50 mM carbonate-bicarbonate, pH 9.6 buffer to yield a protein concentration ranging from 0.01 to 50 μg/ml, and then immobilized to 96-well polystyrene plates at 4° C. overnight. […] After washing, bound peroxidase was detected using the chromogenic peroxidase substrate ABTS. […] Binding activity was detected by incubating the membranes with 20 ml of PBT containing biotinylated proteins (0.1 μg/ml) for 2 h at room temperature followed by three washes with PBT. Bound biotinylated proteins were detected by incubating the membrane with peroxidase conjugated to streptavidin (0.5 μg/ml in PBT) for 1 h at room temperature. After washing, bound peroxidase activity was detected using 3,3′-diaminobenzidine in the presence of CoCl2 and H2O2 (Harlow and Lane, 1988).
# In order to identify P. acnes surface protein recognized by ECM ligands, we used the most commons ECM proteins recognize by skin related bacteria like collagens and fibrinogen. […] To identify surface proteins, P. acnes total heat protein extracts were electrophoretically separated and detected by silver staining (FIG. 1B). […]
# [3] = P. acnes 6919, set I, bacteria first pretreated
# [4] = P. acnes 6919, set II, cells first pretreated
# [5] = P. acnes PIE, set I, bacteria first pretreated
# [6] = P. acnes PIE, set II, cells first pretreated
# [7] = P. acnes RON, set I, bacteria first pretreated
# [8] = P. acnes RON, set II, cells first pretreated
Substance,"Inhibition of Hydrogen peroxide (H2O2) production (HDF cells; P. acnes 6919, set II)","Inhibition of Hydrogen peroxide (H2O2) production (HDF cells; P. acnes PIE, set II)","Inhibition of Hydrogen peroxide (H2O2) production (HDF cells; P. acnes RON, set II)",Inhibition of Hydrogen peroxide (H2O2) production (HaCaT cells; [3]),Inhibition of Hydrogen peroxide (H2O2) production (HaCaT cells; [4]),Inhibition of Hydrogen peroxide (H2O2) production (HaCaT cells; [5]),Inhibition of Hydrogen peroxide (H2O2) production (HaCaT cells; [6]),Inhibition of Hydrogen peroxide (H2O2) production (HaCaT cells; [7]),Inhibition of Hydrogen peroxide (H2O2) production (MRC5 cells; [3]),Inhibition of Hydrogen peroxide (H2O2) production (MRC5 cells; [4]),Inhibition of Hydrogen peroxide (H2O2) production (MRC5 cells; [5]),Inhibition of Hydrogen peroxide (H2O2) production (MRC5 cells; [6]),Inhibition of Hydrogen peroxide (H2O2) production (MRC5 cells; [7]),Inhibition of Hydrogen peroxide (H2O2) production (ThP1 cells; [3]),Inhibition of Hydrogen peroxide (H2O2) production (ThP1 cells; [4]),Inhibition of Hydrogen peroxide (H2O2) production (ThP1 cells; [5]),Inhibition of Hydrogen peroxide (H2O2) production (ThP1 cells; [6]),Inhibition of Hydrogen peroxide (H2O2) production (ThP1 cells; [7]),Inhibition of Hydrogen peroxide (H2O2) production (ThP1 cells; [8]),"Inhibition of Hydrogen peroxide (H2O2) production (NHDK cells; P. acnes 6919, set II)",also measured
"LLLCVFLVKSQGVNDNEEGFFSARGHRPLD (fragment Fg1.4) [small peptide generated from Fg1, overlapping Fg1.1 and Fg1.2]",pos,pos,pos,pos,pos,pos,pos,pos,pos,pos,pos,pos,pos,pos,pos,pos,pos,pos,pos,pos,"Inhibition of Hydrogen peroxide (H2O2) production (NHDK cells; P. acnes PIE, set II): pos; Inhibition of Hydrogen peroxide (H2O2) production (NHDK cells; P. acnes RON, set II): pos; Inhibition of H2O2 production [1]: inhibits the production of H2O2 in a dose-dependent manner"
MKRMVSWSFHKLKTMKHLLLLLLCVFLVKSQGVND (fragment Fg1.1) [small peptide generated from Fg1],pos,pos,pos,pos,pos,pos,pos,pos,pos,pos,pos,pos,pos,pos,pos,pos,pos,pos,pos,pos,"Inhibition of Hydrogen peroxide (H2O2) production (NHDK cells; P. acnes PIE, set II): pos; Inhibition of Hydrogen peroxide (H2O2) production (NHDK cells; P. acnes RON, set II): pos; Inhibition of H2O2 production [1]: inhibits the production of H2O2 in a dose-dependent manner"
"collagen I: commercial ECM ligand, biotinylated, tested for binding to P. acnes surface proteins [reference compound]",,,,,,,,,,,,,,,,,,,,,Binding activity of biotinylated ligand to immobilized P. acnes total surface protein [2]: No binding activity

# From patent publication US10323078B2, “Isolated peptides and fragments thereof from fibrinogen for use as drugs, particularly in skin inflammatory diseases” (Universite Paris Descartes, priority 2015, dated 2019)
